{"source": "patent US4264625A", "about": "“Pesticidal unsymmetrical bis-arylcarbamate sulfide compounds” (Union Carbide Corporation, priority 1978, dated 1981)", "type_in_all_cases": "in vivo", "key": {"[1]": {"test_system": "two-spotted mite (Tetranychus urticae Koch)", "experiment": "Mite Foliage Spray Test", "parameters": "key: A: excellent control; B: partial control; C: no control", "details": "500 ppm foliage spray, six days, mortality rating", "procedure": "(§1) Suspensions of the test compounds were prepared by dissolving one gram of compound in 50 milliliters of acetone in which had been dissolved 0.1 gram (10 percent of the weight of compound) of an alkylphenoxy polyethoxyethanol surfactant, as an emulsifying or dispersing agent. The resulting solution was mixed into 150 milliliters of water to give roughly 200 milliliters of a suspension containing the compound in finely divided form. The thus-prepared stock suspension contained 0.5 percent by weight of compound. The test concentrations in parts per million by weight employed in the tests described hereinbelow were obtained by appropriate dilutions of the stock suspension with water. The test procedures were as follows:\nAdults and nymphal stages of the two-spotted mite (Tetranychus urticae Koch), reared on Tendergreen bean plants at 80±5 percent relative humidity, were the test organisms. Infested leaves from a stock culture were placed on the primary leaves of two bean plants six to eight inches in height, growing in a two-and-a-half inch clay pot. 150-200 Mites, a sufficient number for testing, transferred from the excised leaves to the fresh plants in a period of twenty four hours. Following the twenty four hour transfer period, the excised leaves were removed from the infested plants. The test compounds were formulated by diluting the stock suspension with water to give a suspension containing 500 parts of test compound per million parts of final formulation. The potted plants (one pot per compound) were placed on a revolving turntable and sprayed with 100-110 milliliters of test compound formulation by use of a DeVilbiss spray gun set at 40 psig. air pressure. This application, which lasted 25 seconds, was sufficient to wet the plants to run-off. As a control, 100-110 milliliters of a water solution containing acetone and emulsifier in the same concentrations as the test compound formulation, but containing no test compound, were also sprayed on infested plants. The sprayed plants were held at 80±5 percent relative humidity for six days, after which a mortality count of motile forms was made. Microscopic examination for motile forms was made on the leaves of the test plants. Any individual which was capable of locomotion upon prodding was considered living.\n(§2) In these tests the pesticidal activity of the compounds against aphid, mite, Southern Armyworm, Bean Beetle and house fly was rated as follows: […]"}, "[2]": {"test_system": "bean aphid (Aphis fabae Scop.)", "experiment": "Bean Aphid Foliage Spray Test", "parameters": "key: A: excellent control; B: partial control; C: no control", "details": "500 ppm foliage spray, 24 hours, mortality rating", "procedure": "as §1\nBean Aphid Foliage Spray Test\nAdults and nymphal stages of the bean aphid (Aphis fabae Scop.) reared on potted dwarf nasturtium plants at 65°-70° F. and 50-70 percent relative humidity, constituted the test insects. For testing purposes, the number of aphids per pot was standardized to 100-150 by trimming plants containing excess aphids.\nThe test compounds were formulated by diluting the stock suspension with water to give a suspension containing 500 parts of test compound per million parts of final formulation.\nThe potted plants (one pot per compound tested) infested with 100-150 aphids, were placed on a revolving turntable and sprayed with 100-110 milliliters of test compound formulation by use of a DeVilbiss spray gun set at 40 psig. air pressure. This application, which lasted 25 seconds, was sufficient to wet the plants to run-off. As a control, 100-110 milliliters of a water-acetone-emulsifier solution containing no test compound were also sprayed on infested plants. After spraying, the pots were placed on their sides on a sheet of white standard mimeograph paper which had been previously ruled to facilitate counting. Temperature and humidity in the test room during the 24 hour holding period were 65°-70° F. and 50-70 percent, respectively. Aphids which fell onto the paper and were unable to remain standing after being uprighted were considered dead. Aphids remaining on the plants were observed closely for movement and those which were unable to move the length of the body upon stimulation by prodding were considered dead. Percent mortality was recorded for various concentration levels.\nas §2"}, "[3]": {"test_system": "house flies (Musca domestica, L.)", "experiment": "Fly Bait Test", "parameters": "key: A: excellent control; B: partial control; C: no control", "details": "500 ppm in sugar-solution bait, 24 hours, mortality rating", "procedure": "as §1\nFour to six day old adult house flies (Musca domestica, L.) reared according to the specifications of the Chemical Specialties Manufacturing Association (Blue Book, McNair-Dorland Co., N.Y. 1954; pages 243-244, 261) under controlled conditions of 80°±5° F. and 50±5 percent relative humidity, were the test insects. The flies were immobilized by anesthetizing with carbon dioxide and twenty five immobilized individuals, males and females, were transferred to a cage consisting of a standard food strainer about five inches in diameter which was inverted over a wrapping-paper-covered surface. The test compounds were formulated by diluting the stock suspension with a 10 percent (by weight) sugar solution to give a suspension containing 500 parts of test compound per million parts of final formulation, by weight. Ten milliliters of the test formulation were added to a souffle cup containing a one-inch square of an absorbent cotton pad. This bait cup was introduced and centered on the blotting paper under the food strainer prior to admitting the anesthetized flies. The caged flies were allowed to feed on the bait for twenty four hours, at a temperature of 80°±5° F. and the relative humidity of 50±5 percent.\nas §2"}, "[4]": {"test_system": "southern armyworm (Prodenia eridania, (Cram.))", "experiment": "Southern Armyworm Leaf Spray Test", "parameters": "key: A: excellent control; B: partial control; C: no control", "details": "500 ppm leaf spray, larvae, three days, mortality rating", "procedure": "as §1\nSouthern Armyworm Leaf Spray Test\nLarvae of the southern armyworm (Prodenia eridania, (Cram.)), reared on Tendergreen bean plants at a temperature of 80°±5° F. and a relative humidity of 50±5 percent, constituted the test insects.\nThe test compounds were formulated by diluting the stock suspension with water to give a suspension containing 500 parts of test compound per million parts of final formulation. Potted Tendergreen bean plants of standard height and age were placed on a revolving turntable and sprayed with 100-110 milliliters of test compound formulation by use of a DeVilbiss spray gun set at 10 psig air pressure. This application, which lasted 25 seconds, was sufficient to wet plants to run-off. As a control, 100-110 milliliters of a water-acetone-emulsifier solution containing no test compound were also sprayed on infested plants. When dry, the paired leaves were separated and each one was placed in a 9 centimeter Petri dish lined with moistened filter paper. Five randomly selected larvae were introduced into each dish and the dishes were closed. The closed dishes were labeled and held at 80°-85° F. for three days. Although the larvae could easily consume the whole leaf within twenty-four hours, no more food was added. Larvae which were unable to move the length of the body, even upon stimulation by prodding, were considered dead. Percent mortality was recorded for various concentration levels.\nas §2"}, "Corn": {"test_system": "Corn", "details": "2500 ppm spray, ten days, rating 1-5", "procedure": "(§3) POST-EMERGENT HERBICIDAL TEST\n(§4) Experiments were also conducted to determine the phytotoxicity of representative compositions with respect to healthy fresh plants. Solutions of the compounds were prepared as described above to provide a concentration of 2500 parts per million of the test compound. The test plants were sprayed in accordance with the procedure described above for the Mite Foliage Spray Test so as to deliver approximately 100 milliliters of test solution to the leaves of each plant tested. The sprayed plants and controls were set aside for approximately one hour to allow the solutions to dry and were then placed in the greenhouse. After ten days the plants were visually inspected to determine the extent of foliage injury. A rating of 1 indicates no perceptible injury; 5 indicates the plant was dead and ratings of 2, 3 and 4 indicate intermediate degrees of injury based upon the number and extent to which leaves were injured."}, "Soybean": {"test_system": "Soybean", "details": "2500 ppm spray, ten days, rating 1-5", "procedure": "as §3, §4"}, "Bean": {"test_system": "Bean", "details": "2500 ppm spray, ten days, rating 1-5", "procedure": "as §3, §4"}, "Tomato": {"test_system": "Tomato", "details": "2500 ppm spray, ten days, rating 1-5", "procedure": "as §3, §4"}, "Cotton": {"test_system": "Cotton", "details": "2500 ppm spray, ten days, rating 1-5", "procedure": "as §3, §4"}, "[5]": {"test_system": "Mexican bean beetle (Epilachna varivestis, Muls.)", "experiment": "Mexican Bean Beetle Leaf Spray Test", "parameters": "key: A: excellent control; B: partial control; C: no control", "details": "500 ppm leaf spray, fourth instar larvae, three days, mortality rating", "procedure": "as §1\nMexican Bean Beetle Leaf Spray Test\nFourth instar larvae of the Mexican bean beetle (Epilachna varivestis, Muls.), reared on Tendergreen bean plants at a temperature of 80°±5° F. and 50±5 percent relative humidity, were the test insects.\nThe test compounds were formulated by diluting the stock suspension with water to give a suspension containing 500 parts of test compound per million parts of final formulation. Potted Tendergreen bean plants of standard height and age were placed on a revolving turntable and sprayed with 100-110 milliliters of test compound formulation by use of a DeVilbiss spray gun set at 10 psig air pressure. This application, which lasted 25 seconds, was sufficient to wet plants to run-off. As a control, 100-110 milliliters of a water-acetone-emulsifier solution containing no test compound were also sprayed on infested plants. When dry, the paired leaves were separated and each was placed in a 9 centimeter Petri dish lined with moistened filter paper. Five randomly selected larvae were introduced into each dish, and the dishes were closed. The closed dishes were labeled and held at a temperature of 80°±5° F. for three days. Although the larvae could easily consume the leaf within 24 to 48 hours, no more food was added. Larvae which were unable to move the length of the body, even upon stimulation, were considered dead.\nas §2"}}}
{"smiles": "Cc1cc(OC(=O)N(C)SN(C)C(=O)Oc2ccc(N=CN(C)C)c(C)c2)ccc1N=CN(C)C", "note": "[drawing 37]", "values": [{"measurement": "Pesticidal Activity, Mite", "setting": "[1]", "value": "A"}, {"measurement": "Pesticidal Activity, Aphid", "setting": "[2]", "value": "A"}, {"measurement": "Pesticidal Activity, House fly", "setting": "[3]", "value": "A"}, {"measurement": "Pesticidal Activity, Southern Armyworm", "setting": "[4]", "value": "A"}, {"measurement": "Phytotoxicity, Corn", "setting": "Corn", "value": 1}, {"measurement": "Phytotoxicity, Soybean", "setting": "Soybean", "value": 1}, {"measurement": "Phytotoxicity, Bean", "setting": "Bean", "value": 1}, {"measurement": "Phytotoxicity, Tomato", "setting": "Tomato", "value": 1}, {"measurement": "Phytotoxicity, Cotton", "setting": "Cotton", "value": 1}, {"measurement": "Pesticidal Activity, Mexican Bean Beetle", "setting": "[5]", "value": "A"}]}
